Test results taken from patent US20240308968A1, “FUNGICIDAL SUBSTITUTED HETEROCYCLES” (FMC Corporation, priority 2021, published 2024).

Experiments:
Type in all cases: in vivo
Settings in all cases: 100 = 100% disease control, 0 = no control
[1] = system: Puccinia recondita f. sp. Tritici; experiment: Test B: preventive spray on wheat seedlings, wheat leaf rust disease rating
Text: (§1) General protocol for preparing test suspensions for Tests A-F: the test compounds were first dissolved in acetone in an amount equal to 3% of the final volume and then suspended at the desired concentration (in ppm) in acetone and purified water (50/50 mix by volume) containing 50 to 250 ppm of the surfactant PEG400 (polyhydric alcohol esters). The resulting test suspensions were then used in Tests A-F.
The test solution was sprayed to the point of run-off on wheat seedlings. The following day the seedlings were inoculated with a spore suspension of Puccinia recondita f. sp. Tritici (the causal agent of wheat leaf rust) and incubated in a saturated atmosphere at 20° C. for 24 h, and then moved to a growth chamber at 20° C. for 7 days, after which time disease ratings were made.
(§2) The test suspension was sprayed to the point of run-off on tomato seedlings. The following day the seedlings were inoculated with a spore suspension of Alternaria solani (the causal agent of tomato early blight) and incubated in a saturated atmosphere at 27° C. for 48 h, and then moved to a growth chamber at 20° C. for 3 days, after which time visual disease ratings were made. A rating of 100 indicates 100% disease control and a rating of 0 indicates no disease control (relative to the controls). A dash (-) indicates the compound was not tested.

[2] = system: Zymoseptoria tritici; experiment: Test A: preventive spray on wheat seedlings, wheat leaf blotch disease rating
Text: as §1
The test solution was sprayed to the point of run-off on wheat seedlings. The following day the seedlings were inoculated with a spore suspension of Zymoseptoria tritici (the causal agent of wheat leaf blotch) and incubated in a saturated atmosphere at 24° C. for 48 h, and then moved to a growth chamber at 20° C. for 17 days, after which time disease ratings were made. […]

[3] = system: Botrytis cinerea; experiment: Test E: preventive spray on tomato seedlings, tomato Botrytis disease rating
Text: as §1
The test suspension was sprayed to the point of run-off on tomato seedlings. The following day the seedlings were inoculated with a spore suspension of Botrytis cinerea (the causal agent of tomato Botrytis) and incubated in a saturated atmosphere at 20° C. for 48 h, and then moved to a growth chamber at 24° C. for 3 days, after which time visual disease ratings were made.
as §2

[4] = system: Blumeria graminis f. sp. Tritici; experiment: Test C: preventive spray on wheat seedlings, wheat powdery mildew disease rating
Text: as §1
The test suspension was sprayed to the point of run-off on wheat seedlings. The following day the seedlings were inoculated with a spore dust of Blumeria graminis f. sp. Tritici, (also known as Erysiphe graminis f. sp. Tritici, the causal agent of wheat powdery mildew) and incubated in a growth chamber at 20° C. for 8 days, after which time visual disease ratings were made.
as §2

[5] = system: Alternaria solani; experiment: Test F: preventive spray on tomato seedlings, tomato early blight disease rating
Text: as §1, §2

[6] = system: Phakopsora pachyrhizi; experiment: Test D: preventive spray on soybean seedlings, Asian soybean rust disease rating
Text: as §1
The test solution was sprayed to the point of run-off on soybean seedlings. The following day the seedlings were inoculated with a spore suspension of Phakopsora pachyrhizi (the causal agent of Asian soybean rust) and incubated in a saturated atmosphere at 22° C. for 24 h and then moved to a growth chamber at 22° C. for 8 days, after which time visual disease ratings were made.
as §2

[7] = Puccinia recondita, 192 h, 250 ppm
[8] = Zymoseptoria tritici, 456 h, 250 ppm
[9] = Botrytis cinerea, 120 h, 250 ppm
[10] = Blumeria graminis, 192 h, 250 ppm
[11] = Alternaria solani, 120 h, 250 ppm
[12] = Phakopsora pachyrhizi, 216 h, 250 ppm

SMILES | Test B disease control rating ([1]; 50 ppm) [%] | Test A disease control rating ([2]; 50 ppm) [%] | Test E disease control rating ([3]; 50 ppm) [%] | Test C disease control rating ([4]; 50 ppm) [%] | Test F disease control rating ([5]; 50 ppm) [%] | Test D disease control rating ([6]; 50 ppm) [%] | also measured
Cc1c(-c2ccc(F)cc2Cl)c(-c2ccc(Cl)s2)nn(C)c1=O [Compound 10] | 68 | 100 | 96 | 96 | 16 | 12 | –
Cc1sccc1-c1nn(C)c(=O)c(C)c1-c1ccc(F)cc1Cl [Compound 8] | 100 | 99 | 94 | 99 | 99 | 96 | –
Cc1c(-c2ccc(F)cc2Cl)c(-c2ccn(C)n2)nn(C)c1=O [Compound 20] | 19 | 0 | 33 | 72 | 0 | 0 | –
COc1ccc(Cl)c(-n2nc(OC)c(=O)cc2-c2ccc(F)cc2Cl)c1 [Compound 118] | 99 | 80 | 97 | 56 | 0 | 0 | –
Cn1nc(-c2ccoc2)c(-c2c(F)cccc2F)cc1=O [Compound 3] | – | – | – | – | – | – | Test B disease control rating ([1]; 250 ppm): 0%; Test A disease control rating ([2]; 250 ppm): 0%; Test E disease control rating ([3]; 250 ppm): 0%; Test C disease control rating ([4]; 250 ppm): 0%; Test F disease control rating ([5]; 250 ppm): 0%; Test D disease control rating ([6]; 250 ppm): 38%
CCn1c(-c2c(F)cc(F)cc2F)c(-c2cc(OC)c(Cl)c(OC)c2)cc(C#N)c1=O [Compound 72] | 98 | 93 | 90 | 21 | 0 | 77 | –
COc1cc(OC)c(Cl)c(-n2nc(N)c(=O)c(C)c2-c2ccc(F)cc2Cl)c1 [Compound 87] | 98 | 100 | 96 | 96 | 99 | 100 | –
COc1cc(OC)cc(-n2nc(CO)c(=O)c(C)c2-c2ccc(F)cc2F)c1 [Compound 23, 6-(2,4-difluorophenyl)-1-(3,5-dimethoxyphenyl)-3-(hydroxymethyl)-5-methyl-4(1H)-pyridazinone] | – | – | – | – | – | – | pest or weed control at 50 ppm ([1]; Puccinia recondita, 192 h, 50 ppm): 68%; pest or weed control at 50 ppm ([2]; Zymoseptoria tritici, 456 h, 50 ppm): 3%; pest or weed control at 50 ppm ([3]; Botrytis cinerea, 120 h, 50 ppm): 46%; pest or weed control at 50 ppm ([4]; Blumeria graminis, 192 h, 50 ppm): 0%; pest or weed control at 50 ppm ([5]; Alternaria solani, 120 h, 50 ppm): 53%; pest or weed control at 50 ppm ([6]; Phakopsora pachyrhizi, 216 h, 50 ppm): 43%
COc1cc(OC)cc(-n2c(-c3ccc(F)cc3Cl)cc(=O)n(C)c2=O)c1 [Compound 34, 6-(2-chloro-4-fluorophenyl)-1-(3,5-dimethoxyphenyl)-3-methyl-2,4(1H,3H)-pyrimidinedione] | – | – | – | – | – | – | pest or weed control at 250 ppm [1, 7]: 86%; pest or weed control at 250 ppm [2, 8]: 25%; pest or weed control at 250 ppm [3, 9]: 63%; pest or weed control at 250 ppm [4, 10]: 0%; pest or weed control at 250 ppm [5, 11]: 0%; pest or weed control at 250 ppm [6, 12]: 64%
COc1cc(OC)cc(-c2nc(C)nc(C)c2-c2ccc(F)cc2Cl)c1 [Compound 44, 5-(2-chloro-4-fluorophenyl)-4-(3,5-dimethoxyphenyl)-2,6-dimethylpyrimidine] | – | – | – | – | – | – | pest or weed control at 250 ppm [1, 7]: 100%; pest or weed control at 250 ppm [2, 8]: 99%; pest or weed control at 250 ppm [3, 9]: 99%; pest or weed control at 250 ppm [4, 10]: 99%; pest or weed control at 250 ppm [5, 11]: 98%; pest or weed control at 250 ppm [6, 12]: 95%
CCOC(=O)c1nn(-c2cc(OC)cc(OC)c2)c(-c2ccc(F)cc2F)c(C(=O)OCC)c1=O [Compound 88] | – | – | – | – | – | – | Test B disease control rating ([1]; 250 ppm): 0%; Test A disease control rating ([2]; 250 ppm): 0%; Test E disease control rating ([3]; 250 ppm): 0%; Test C disease control rating ([4]; 250 ppm): 0%; Test F disease control rating ([5]; 250 ppm): 0%; Test D disease control rating ([6]; 250 ppm): 0%
Cc1c(-c2ccc(F)cc2Cl)c(-c2sc(Br)cc2Br)nn(C)c1=O [Compound 16] | 68 | 99 | 37 | 64 | 0 | 0 | –
Cc1c(-c2ccc(F)cc2Cl)c(-c2ccsc2)nn(C)c1=O [Compound 5] | 74 | 100 | 93 | 96 | 91 | 21 | –
Cc1cscc1-c1nn(C)c(=O)c(C)c1-c1ccc(F)cc1Cl [Compound 14] | 99 | 100 | 96 | 97 | 94 | 72 | –
COc1cc(OC)c(Cl)c(-c2nc(C)nc(C)c2-c2ccc(F)cc2Cl)c1 [Compound 42, 4-(2-chloro-3,5-dimethoxyphenyl)-5-(2-chloro-4-fluorophenyl)-2,6-dimethylpyrimidine] | – | – | – | – | – | – | pest or weed control at 250 ppm [1, 7]: 100%; pest or weed control at 250 ppm [2, 8]: 96%; pest or weed control at 250 ppm [3, 9]: 99%; pest or weed control at 250 ppm [4, 10]: 100%; pest or weed control at 250 ppm [5, 11]: 100%; pest or weed control at 250 ppm [6, 12]: 100%
COc1ccc(-c2c(Cl)c(=O)c(C)nn2-c2cc(OC)ccc2Cl)c(Cl)c1 [Compound 129] | 100 | 100 | 98 | 99 | 100 | 99 | –
COc1cc(-c2cc(C#N)c(=O)n(C)c2-c2ccc(F)cc2Cl)ccc1Cl [Compound 160] | – | – | – | – | – | – | Test B disease control rating ([1]; 250 ppm): 80%; Test A disease control rating ([2]; 250 ppm): 46%; Test E disease control rating ([3]; 250 ppm): 94%; Test C disease control rating ([4]; 250 ppm): 0%; Test D disease control rating ([6]; 250 ppm): 0%
